# Results taken from PubChem BioAssay AID179 (DTP/NCI, 2004).
# Activity calls are given as the source filed them.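 How the source made its calls: active means compounds giving half or more protection of infected cells from virus-caused growth loss, again on retest; inactive means the rest.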 Where a SMILES comes first, the peptide text is derived from it. The star is where a group is joined. Fmoc = O=C(OCC1c2ccccc2-c2ccccc21)*; OtBu = CC(C)(C)O*
# Test system: CEM cells HIV-1 protection, formazan growth assay
# Experiment: NCI AIDS Antiviral Assay
# Conditions: for IC50: measured here: growth of uninfected CEM cells
# Outline: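 Human CEM cells, uninfected and HIV-1-infected, exposed to five drug concentrations; growth measured by soluble formazan assay and scored as percent protection from infection, with protecting compounds retested.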
Compound,outcome,EC50,IC50
CCN1C[C@]2(C)CCC(OC)C34[C@@H]1[C@@]1(OCO[C@@]15C[C@H](OC)[C@@H]1C[C@]3(O)[C@@H]5C1OC(C)=O)[C@@H](OC(C)=O)[C@@H]42 (some centres not stated),inactive,–,–
Cc1ccc2c(c1)C(=O)N1CSCC1C(=O)S2 (configuration not stated),–,> 251 µM,32.4 µM
CCN(CC)CCOc1ccc(/C(C#N)=C/c2ccc(OCCO)cc2)cc1,–,> 200 µM,20.9 µM
CC(=O)NC(CCSSCCC(NC(C)=O)C(=O)ON1C(=O)CCC1=O)C(=O)ON1C(=O)CCC1=O (configuration not stated),–,> 200 µM,> 200 µM
COc1ccc([C@H]2CC(=O)N3CCCC3N2)cc1 (some centres not stated),–,> 200 µM,> 200 µM
Cc1ccc(N=NC(C2=NC(=O)CS2)c2nc3ccccc3[nH]2)cc1 (configuration not stated),–,> 7.41 µM,> 7.41 µM
COC(=O)Cc1cc(=O)[nH]c2c1C(=O)CCC2,inactive,–,–
NC(=O)CCC(NC(=O)c1ccccc1SC(=O)CCCC[n+]1ccccc1)C(N)=O (configuration not stated),–,20.4 µM,> 200 µM
NS(=O)(=O)c1ccc(Nc2c3ccccc3nc3c(C(=O)N4CCN(CCO)CC4)cccc23)cc1,–,> 43.7 µM,> 43.7 µM
Cc1cc(Nc2ccc(S(=O)(=O)O)c3cc(S(=O)(=O)O)cc(S(=O)(=O)O)c23)c2ccccc2n1,–,> 200 µM,> 200 µM
O=C(C1OC1c1ccc(F)cc1)C12CC3CC(CC(C3)C1)C2 (configuration not stated),–,> 200 µM,12 µM
Clc1ccc(NC(Nc2ccc(Cl)cc2)C(Cl)(Cl)Cl)cc1,inactive,–,–
Oc1c(C(O)N2CCOCC2)cc(C(O)N2CCOCC2)c(O)c1O (configuration not stated) (tested in a mixture with another compound),–,> 200 µM,1.91 µM
O=C1CCn2c([nH]c3cccc4cccc2c43)=N1,–,> 151 µM,148 µM
O=C(O)c1ccc(CS(=O)(=O)c2ccccc2C(=O)O)c([N+](=O)[O-])c1,–,> 692 µM,> 692 µM
COc1cc(C(=O)O[C@@H]2[C@@H](OC(=O)c3cc(OC)c(OC)c(OC)c3)[C@@H](OC)O[C@@H]3CO[C@@H](c4ccccc4)O[C@@H]23)cc(OC)c1OC,–,> 200 µM,> 200 µM
O=C1NC(=O)C23C(=O)NC(=O)C12C1C=CC3CC1 (configuration not stated),–,> 200 µM,> 200 µM
O=c1cc(Cl)c(Cl)nn1-c1ccccc1,–,> 56.2 µM,9.77 µM
COc1ccc(/C=C2\Cc3ccccc3C2=O)cc1OC,–,> 35.5 µM,> 35.5 µM
Cc1cc(C)c(NC(=O)c2cnccn2)c(=O)o1,–,> 200 µM,> 200 µM
CC(C)(C)c1ccc2c(c1)CNCCNCCNCc1cc(C(C)(C)C)ccc1OCC1(CO2)COc2ccc(C(C)(C)C)cc2CNCCNCCNCc2cc(C(C)(C)C)ccc2OC1,–,> 1.51 µM,0.813 µM

Compound,outcome,EC50,IC50
CCOC(=O)C1=C(Nc2ccc(Cl)cc2Cl)OCC1=O,inactive,–,–
COC(=O)c1cc(C(=O)c2cc(C)c(OC)c(C(=O)OC)c2)cc(C)c1OC,–,> 200 µM,66.1 µM
COc1cc(C2C(C(=O)Nc3ccccc3)=C(C)NC(C)=C2C(=O)Nc2ccccc2)ccc1O,inactive,–,–
Clc1ccccc1-c1nc2ccc(C34CC5CC(CC(C5)C3)C4)cc2[nH]1,–,> 200 µM,162 µM
CSC1=C(C(=O)N(COCC[Si](C)(C)C)c2ccccc2Br)CCC(C(C)(C)C)C1 (configuration not stated),–,> 200 µM,17.8 µM
COC(=O)[C@]1(Cc2ccc3ccccc3c2)CCCCCCN1C(=O)c1ccccc1,inactive,–,–
Cc1ccc(C2NC(=O)N3C(c4ccc(C)cc4)NC(=O)N23)cc1 (configuration not stated),–,> 200 µM,30.2 µM
Cc1cc(-c2ccc(Cl)cc2)c(C#N)c(=S)n1C1OC(CO)C(O)C(O)C1O (configuration not stated),–,> 200 µM,> 200 µM
Cc1cc(N(CCC#N)S(=O)(=O)c2ccccc2)ccc1/C=C1\N=C(c2ccc(Cl)cc2)OC1=O,–,> 257 µM,> 257 µM
CC(C)(CCCCC(C)(C)[N+](C)(C)C)[N+](C)(C)C,–,> 200 µM,> 200 µM
CC1=Cc2cc3[n-]c(cc4nc(cc5[n-]c(cc1n2)cc5C)C(C)=C4CCC(=O)O)c(CCC(=O)O)c3C.[Pd+2],–,> 11.7 µM,1.02 µM
CC12CCCCC1(C)C2Sc1ccccc1 (configuration not stated),inactive,–,–
N#COc1ccc(Oc2ccccc2)cc1,–,> 24.5 µM,> 24.5 µM
COc1cc(C)c(Cc2cnc(N)nc2N)cc1OC,–,> 200 µM,> 200 µM
Cc1cc(C)nc(/C(=N\NC(N)=O)C(=O)Nc2nc3ccc(C)cc3s2)c1,–,> 661 µM,> 661 µM
O=C(/C=C/c1ccccc1)Oc1cccc(Br)c1,–,> 200 µM,17.8 µM
O=S(O)CCCCSSCCCCSSCCCCS(=O)O,inactive,–,–
Nn1c(C23CC4CC(CC(C4)C2)C3)n[nH]c1=S,–,182 µM,> 200 µM
CC(C)C(NC(=O)C(Cc1ccccc1)NC(=O)[C@H]1CCC[C@H]1NC(=O)C(Cc1ccc(OC(C)(C)C)cc1)NC(=O)OC(C)(C)C)C(N)=O (some centres not stated),–,> 200 µM,29.5 µM
CC1CC(=O)Nc2cc(Cl)ccc2N1C(=O)C1CC1 (configuration not stated),–,> 200 µM,> 200 µM
O=C1C2C=CC(C2)C(c2ccc(O)cc2)N1O (configuration not stated),–,> 776 µM,> 776 µM

Compound,outcome,EC50,IC50
C/C=C(/C)C(=O)O[C@@H]1c2c(C)coc2C[C@H]2CC[C@H](O)[C@H](C)[C@]21C,–,> 200 µM,58.9 µM
COC12[C@@H]3N[C@@H]3CN1C1=C(C(=O)C(NCCSSCCNC3=C(C)C(=O)C4=C(C3=O)C(COC(N)=O)[C@]3(OC)C5N[C@@H]5CN43)=C(C)C1=O)[C@@H]2COC(N)=O (some centres not stated),–,> 200 µM,0.0631 µM
CN(C)c1ccc(/C=N/NS(=O)(=O)c2ccc(N)cc2)cc1,–,> 214 µM,> 214 µM
CC(C)(C)[Si](C)(C)OC[C@H]1O[C@@H](n2ccc(=O)[nH]c2=O)[C@H](O[Si](C)(C)C(C)(C)C)[C@@]12N[C@H](C(=O)O)CS2,–,> 200 µM,10 µM
CCC(=O)NC1Cc2cc(C)cc(C)c21 (configuration not stated),–,> 89.1 µM,> 89.1 µM
O=[N+]([O-])c1ccccc1S(=O)(=O)Cc1ccccc1,–,> 245 µM,> 245 µM
Cc1ccc(SCC(CF)OC(C)n2cnc3c(Cl)nc(N)nc32)cc1 (configuration not stated),–,> 200 µM,38 µM
CN1CSCSC1,inactive,–,–
CCC1(C)N=C(C(N)=O)c2ncn(N=C(C)C)c2N1 (configuration not stated),–,> 200 µM,> 200 µM
CCCC1C/C=C/C=C/C=C/C=C/C(OC2OC(C)C(O)C(N)C2O)CC(O)C(C(=O)O)C(O)CC(=O)CC(O)CCCC(=O)CC(O)C(CC)C(=O)O1 (configuration not stated),inactive,–,–
CC=CCOc1cc(NC(=S)OC(C)C)ccc1Cl (mixture of isomers),–,0.126 µM,24 µM
CC(C)CCOC(=O)NC(Nc1ccc(F)cc1)(C(F)(F)F)C(F)(F)F,inactive,–,–
CC(C)C(NC(=O)OCC1c2ccccc2-c2ccccc21)C(=O)NC(CCC(=O)OC(C)(C)C)C(=O)OC(C)(C)C (configuration not stated) (Fmoc-Val-Glu(OtBu)-OtBu; configuration not given here),–,> 200 µM,24.5 µM
N#C/C(=C\c1ccccc1)c1ccc(F)cc1,–,> 200 µM,53.7 µM
NNC(=O)c1c/c(=N\NC(=O)CC(=O)Nc2ccccc2Cl)c2ccccc2o1,–,> 1.74 µM,> 1.74 µM
COC(NC(=O)Nc1ccccc1C)(C(F)(F)F)C(F)(F)F,–,> 200 µM,57.5 µM
O=c1[nH]c(-c2ccc([N+](=O)[O-])cc2)nc2ccc(Cl)cc12,inactive,–,–
O=C1c2ccccc2CC12Cc1ccc3c(c1C2=O)CCCC3 (configuration not stated),–,> 200 µM,> 200 µM
CC1C(c2ccccc2)OCN1CC=C(c1ccsc1)c1ccsc1 (configuration not stated),–,> 200 µM,15.1 µM
CC1=C(C(=O)N(C)c2ccc(Cl)c(C(=O)OC(C)C)c2)SCCO1,–,> 240 µM,93.3 µM
CSC(=O)/C=C1\SS/C(=C\C(=O)SC)S1,–,> 200 µM,3.09 µM

Compound,outcome,EC50,IC50
C[CH2][Sn]([Cl])([Cl])[CH2]C,inactive,–,–
CN(C)c1nc(N(C)C)nc(N2C(=O)CCC2=O)n1,–,> 200 µM,> 200 µM
CCOC1Oc2ccccc2-c2nc(C)c(C#N)cc21 (configuration not stated),–,> 83.2 µM,> 83.2 µM
COC(=O)/C=C\C(C#N)(C#N)N=Cc1cc(Br)cs1,–,> 2 µM,0.676 µM
CCOC(=O)Cc1nc2sc3c(c2c(=O)[nH]1)CCCC3,–,> 324 µM,> 324 µM
CCC1CCc2c(OC)ccc(OCC(=O)O)c2C1=O (configuration not stated),inactive,–,–
COc1cc2c(cc1O)C(CSC)Cc1cc(OC)c(OC)cc1N(C)CCC2 (configuration not stated),–,> 200 µM,38.9 µM
O=C1c2ccccc2C(Br)(Br)c2ccccc21,inactive,–,–
N#Cc1c(NC(=O)C(F)(F)F)sc2c3c(=O)c4ccccc4c(=O)c=3oc3ccccc3c12,–,> 100 µM,17.4 µM
COCC12CCC(OC)C34C5CC6(O)C(OC)CC(OC(C)=O)(C5C6OC(=O)c5ccccc5)C(C(OC)C13)C4N(C)C2 (configuration not stated),inactive,–,–
CCCCCC1CC=CC(NC(=O)OCc2ccccc2)C1/C=C/C(=O)CCCCCOC(=O)c1ccc(Br)cc1 (configuration not stated),inactive,–,–
CCCCCCCCCC(=O)Oc1c2ccoc2cc2oc(=O)ccc12,–,> 63.1 µM,> 63.1 µM
CC(C)(c1ccsc1)c1sccc1C(=O)O,–,> 200 µM,> 200 µM
O=C(Cc1nc2ccccc2s1)C(=O)Nc1ccc(Cl)cc1Cl,inactive,–,–
C[C@@H]1C[C@@H]2OC(=O)[C@]3(C)[C@H]2[C@@H](OC3(C)O)[C@]2(C)C(=O)C=C[C@@H]12 (some centres not stated),–,> 316 µM,5.75 µM
CC(C)CCCC(C)[C@H]1CC[C@H]2[C@@H]3CC[C@H]4C[C@@H](CCC=C(c5cc(Cl)c(O)c(C(=O)OC(C)C)c5)c5cc(Cl)c(O)c(C(=O)OC(C)C)c5)CC[C@]4(C)[C@H]3CC[C@]12C (some centres not stated),–,67.6 µM,151 µM
O=C1CSC(/C(=C/c2ccccc2)c2nc3ccccc3[nH]2)=N1,–,21.9 µM,22.4 µM
N#CNC(=NCc1ccccc1)N(Cc1ccccc1)Cc1ccccc1,–,> 14.8 µM,> 14.8 µM
CC(C)(C)/C(CC(=O)CCC(=O)Nc1ccc(Cl)cc1)=N\NC(N)=S,inactive,–,–
CN(C)/C=C/c1c2c(nc3ccccc13)C(=O)c1cccnc1C2=O,inactive,–,–
COC(=O)/C([Se]c1c(C)cc(C)cc1C)=C(/[Se]c1c(C)cc(C)cc1C)C(=O)OC,inactive,–,–
